Experimental data taken from US20070135307A1, “Inhibition of tuber sprouting” (ACETO AGRICULTURAL CHEMICALS CORP., priority 2005, published 2007).

Assays:
[1] = system: Russet Norkotah potato tubers; assay: Sprout inhibition of stored potato tubers, Russet Norkotah (% OK for fresh pack); type: in vivo, Solanum tuberosum
Text: (§1) The storage system was designed to duplicate a large commercial storage facility in miniature. Drums containing 150-200 pounds of potatoes were sealed and housed in a building in which temperature and humidity could be controlled. Formed in each drum is an inlet in which untreated air (ventilation air) was introduced under a perforated floor to the drum. The ventilation air moves through the pile of potatoes and is exhausted from the top of the drum to the outside of the building.
(§2) This storage ventilation was shut down for a 24 hour duration during and directly after the treatment of the chemicals. Then it is maintained for the duration of the trial, with ventilation air forced through the drums at a rate of 0.5 cubic feet per minute on a three-hour on and a three-hour off schedule.
(§3) In the spray application technique the formulations were mixed with water and sprayed on the newly harvested tubers at a rate of 5 and 10 parts per million (weight of the active to weight of the potatoes) mixed in a water carrier. The mixture was applied at 1 quart per ton of potatoes. The spray was applied via a hand held spray gun propelled with compressed air as the tubers were rotating in a cement mixer drum. This insured that all surface area is coated with the active ingredient.
(§4) The Fogs were all applied with thermal foggers built to duplicate applications of commercial thermal fogging techniques.
(§5) The custom thermal fogger's heat source was an electric hot plate set at 500 degrees F. This temperature is monitored throughout the application with a thermal couple that is inserted in a cavity just below the surface where the chemical is placed. A chamber was attached to the hot plate. A fan was mounted to the top of the chamber. The fogger was attached to the storage container with flexible tubing.
(§6) The fog was delivered to each drum through separate ports. Through the bottom port of the storage drum a perforated stinger was installed that runs the length of the drum. Flexible tubing delivered the fog air mixture from the fogger. The fog air mixture was returned to the thermal fogger through a second flexible tubing that was attached from the top of the storage drum to the bottom of the thermal fogger. The air fog mixture was recirculated through the system for five minutes.
(§7) The potatoes were monitored for sprout activity on a regular basis after treatment. When early sprout activity was observed the potatoes were first evaluated. Then at approximately 30 day intervals, 60 tubers were randomly selected from each treatment. Each tuber was rated for the length of the longest sprout on each tuber. The scale used for the rating system as is follows: • 0-Not Peeping=no sprout or swelling of eye tissue evident. • 1-Peeping=swelling of eye tissue up to a sprout length of 3 mm • 2-sprout length from 3 mm to […]. • 3-sprout length from 1 cm to 3 cm. • 4-sprout length from 3 cm to 5 cm. • 5-sprout length from 5 cm and longer
(§8) Results of each set of 60 tubers were recorded into 6 subsets of 10 tubers each (replicates). The data is summarized into PERCENT OK RE: FRESHPCK (Fresh pack). The PERCENT OK RE: FRESHPCK is the percent of the tubers that are NOT PEEPING and PEEPING categories combined together (i.e., the addition of the percentage of potatoes rated that are in the “0”-Not peeping=(no sprout or swelling of the eye tissue evident) plus “1” Peeping=(swelling of the eye tissue up to a sprout length of 3 mm.).
(§9) Analysis times are approximate days after harvest (DAH)

[2] = system: Russet Burbank potato tubers; assay: Sprout inhibition of stored potato tubers, Russet Burbank (% OK for fresh pack); type: in vivo, Solanum tuberosum
Text: as §1, §2, §3, §4, §5, §6, §7, §8, §9

Structure (SMILES)	% OK For Fresh Pack, Dormant + sprout up to 3 mm ([1]; 5 ppm Spray, 53 DAH) [%]	% OK For Fresh Pack, Dormant + sprout up to 3 mm ([1]; 5 ppm Spray, 85 DAH) [%]	% OK For Fresh Pack, Dormant + sprout up to 3 mm ([1]; 5 ppm Spray, 107 DAH) [%]	% OK For Fresh Pack, Dormant + sprout up to 3 mm ([1]; 10 ppm Spray, 53 DAH) [%]	% OK For Fresh Pack, Dormant + sprout up to 3 mm ([1]; 10 ppm Spray, 85 DAH) [%]	% OK For Fresh Pack, Dormant + sprout up to 3 mm ([1]; 10 ppm Spray, 107 DAH) [%]	% OK For Fresh Pack, Dormant + sprout up to 3 mm ([2]; 5 ppm Spray, 132 DAH) [%]	% OK For Fresh Pack, Dormant + sprout up to 3 mm ([2]; 5 ppm Spray, 161 DAH) [%]	% OK For Fresh Pack, Dormant + sprout up to 3 mm ([2]; 5 ppm Spray, 191 DAH) [%]	% OK For Fresh Pack, Dormant + sprout up to 3 mm ([2]; 5 ppm Spray, 223 DAH) [%]	% OK For Fresh Pack, Dormant + sprout up to 3 mm ([2]; 5 ppm Spray, 252 DAH) [%]	% OK For Fresh Pack, Dormant + sprout up to 3 mm ([2]; 5 ppm Spray, 283 DAH) [%]	further results
CCOC1Oc2ccc(OS(C)(=O)=O)cc2C1(C)C (racemic) [ETH, (RS)-2-ethoxy-2,3-dihydro-3,3-dimethylbenzofuran-5-yl methanesulfonate]	68.3	11.7	0.0	93.3	33.3	3.3							
CC(C)(C)[C@@H](O)[C@@H](Cc1ccc(Cl)cc1)n1cncn1 (racemic) [PAC, (2RS,3RS)-1-(4-chlorophenyl)-4,4-dimethyl-2-(1H-1,2,4-triazol-1-yl)pentan-3-ol]	93.3	13.3	1.7	86.7	13.3	0.0							
CCCCC(CC)COC(=O)COc1ccc(Cl)cc1Cl (stereo not drawn) [2,4 D LV, Isoocotyl (2-ethylhexyl) ester of 2,4-dichlorophenoxyacetic acid]							96.7	30.0	8.3	0.0	0.0	0.0	
O=C(O)CCCOc1ccc(Cl)cc1Cl [2,4 DB, Dimethyl Amine of 4-(2,4-Dichloropenoxy) butyric acid]	81.7	3.3	0.0	91.7	11.7	0.0							
CC(C)OC(=O)Nc1cccc(Cl)c1 [CIPC 98A, isopropyl 3-chlorophenylcarbamate]													% OK For Fresh Pack, Dormant + sprout up to 3 mm ([2]; 11 ppm Fog, 132 DAH): 100.0%; % OK For Fresh Pack, Dormant + sprout up to 3 mm ([2]; 11 ppm Fog, 161 DAH): 26.7%; % OK For Fresh Pack, Dormant + sprout up to 3 mm ([2]; 11 ppm Fog, 191 DAH): 0.0%; % OK For Fresh Pack, Dormant + sprout up to 3 mm ([2]; 11 ppm Fog, 223 DAH): 0.0%; % OK For Fresh Pack, Dormant + sprout up to 3 mm ([2]; 11 ppm Fog, 252 DAH): 0.0%; % OK For Fresh Pack, Dormant + sprout up to 3 mm ([2]; 11 ppm Fog, 283 DAH): 0.0%; % OK For Fresh Pack, Dormant + sprout up to 3 mm ([2]; 16.6 ppm Fog, 132 DAH): 100.0%; % OK For Fresh Pack, Dormant + sprout up to 3 mm ([2]; 16.6 ppm Fog, 161 DAH): 26.7%; % OK For Fresh Pack, Dormant + sprout up to 3 mm ([2]; 16.6 ppm Fog, 191 DAH): 0.0%; % OK For Fresh Pack, Dormant + sprout up to 3 mm ([2]; 16.6 ppm Fog, 223 DAH): 0.0%; % OK For Fresh Pack, Dormant + sprout up to 3 mm ([2]; 16.6 ppm Fog, 252 DAH): 0.0%; % OK For Fresh Pack, Dormant + sprout up to 3 mm ([2]; 16.6 ppm Fog, 283 DAH): 0.0%
CC(C)OC(=O)Nc1cccc(Cl)c1 [CIPC A, isopropyl 3-chlorophenylcarbamate]													% OK For Fresh Pack, Dormant + sprout up to 3 mm ([1]; 16.6 ppm Fog, 53 DAH): 100.0%; % OK For Fresh Pack, Dormant + sprout up to 3 mm ([1]; 16.6 ppm Fog, 85 DAH): 86.7%; % OK For Fresh Pack, Dormant + sprout up to 3 mm ([1]; 16.6 ppm Fog, 107 DAH): 86.7%
CCNC(=O)[C@@H](C)OC(=O)Nc1ccccc1 [Car, Ethyl-2-(((phenylamino)carbonyl)oxy)promanamide]							93.3	8.3	0.0	0.0	0.0	0.0	
CC(=O)Nc1cc(NS(=O)(=O)C(F)(F)F)c(C)cc1C [MEF, N-[2,4-dimethyl-5-[[(trifluoromethyl)sulfonyl]amino]phenyl]acetamide]	81.7	11.7	0.0	93.3	13.3	0.0							
C#CC(C)(C)NC(=O)c1cc(Cl)cc(Cl)c1 [PRO, 3,5-dichloro-N-(1,1-dimethyl-2-propynyl)benzamide]	100.0	90.0	18.3	100.0	80.0	28.3	100.0	83.3	71.7	61.7	60.0	50.0	
